In PMC7825493, “Characterization of LDD-2633 as a Novel RET Kinase Inhibitor with Anti-Tumor Effects in Thyroid Cancer” (Pharmaceuticals, 2021) one finds IC50 data, which are given here for one compound.

SMILES strings stand for the structures. Counter-ions that a name gives are not always drawn.

The assay addresses RET kinase (Homo sapiens, UniProt P07949). The assay can be described thus: HTRF KinEASE-TK (TR-FRET) kinase assay with recombinant RET, […] ATP. Type of assay: biochemical. In general terms: TR-FRET usually uses a lanthanide donor and a delayed reading to cut background.

Sequence of RET kinase (P07949 29-1114): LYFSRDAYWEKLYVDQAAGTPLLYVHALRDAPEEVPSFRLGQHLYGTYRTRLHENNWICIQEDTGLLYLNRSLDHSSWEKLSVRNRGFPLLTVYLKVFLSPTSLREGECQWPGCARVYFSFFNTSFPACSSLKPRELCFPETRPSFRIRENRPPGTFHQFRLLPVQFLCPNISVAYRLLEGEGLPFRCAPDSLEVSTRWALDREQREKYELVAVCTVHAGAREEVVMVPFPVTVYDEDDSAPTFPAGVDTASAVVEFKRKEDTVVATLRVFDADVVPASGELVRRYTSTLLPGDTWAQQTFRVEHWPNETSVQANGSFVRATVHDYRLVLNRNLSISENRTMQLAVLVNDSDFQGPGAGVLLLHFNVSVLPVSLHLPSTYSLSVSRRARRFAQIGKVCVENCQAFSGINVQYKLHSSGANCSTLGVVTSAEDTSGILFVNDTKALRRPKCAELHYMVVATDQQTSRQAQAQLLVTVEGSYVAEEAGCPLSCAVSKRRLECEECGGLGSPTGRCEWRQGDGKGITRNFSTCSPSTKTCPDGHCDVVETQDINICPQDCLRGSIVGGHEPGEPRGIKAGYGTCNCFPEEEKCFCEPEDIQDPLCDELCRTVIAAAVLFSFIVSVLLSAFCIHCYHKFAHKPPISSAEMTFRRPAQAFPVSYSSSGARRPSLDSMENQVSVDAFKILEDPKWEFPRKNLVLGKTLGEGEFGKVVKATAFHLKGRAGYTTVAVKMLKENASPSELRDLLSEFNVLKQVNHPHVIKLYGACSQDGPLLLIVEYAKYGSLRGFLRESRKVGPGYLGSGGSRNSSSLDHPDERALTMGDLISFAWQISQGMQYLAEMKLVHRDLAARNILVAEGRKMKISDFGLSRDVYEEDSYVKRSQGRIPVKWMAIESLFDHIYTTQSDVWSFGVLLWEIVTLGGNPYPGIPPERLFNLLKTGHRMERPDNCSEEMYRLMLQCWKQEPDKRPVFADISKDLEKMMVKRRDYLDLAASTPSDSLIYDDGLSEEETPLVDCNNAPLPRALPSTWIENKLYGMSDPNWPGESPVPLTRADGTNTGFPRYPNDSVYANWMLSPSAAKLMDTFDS

As to `O=C1Nc2ccccc2/C1=C1/Nc2ccccc2/C1=N\OCCN1CCNCC1` [LDD-2633, (2Z,3E)-3-((2-(piperazin-1-yl)ethoxy)imino)-[2,3′-biindolinylidene]-2′-one hydrochloride], the IC50 was found to be 4.42 nM.

One may read the IC50 as the concentration that gives 50% inhibition.
